Values after ≈ are worked out from the molar mass of the structure shown. Where two headings read alike, the source gives them in different places. Where a SMILES comes first, the peptide text is derived from it. A value given as a limit tells only on which side of the number the result lay.

What all share (test): microbe, parasite or virus in culture
Common to all, as to format: cell-based

Experiment [1] deals with Pseudomonas aeruginosa ATCC 27853. As for the experimental part: (§1) Antimicrobial testing of 78 cathelicidin MPs was performed in two phases as outlined in Figure 1 . In phase I, 40 peptides (27 extant and 13 ancestral) were selected for testing based on rank (outlined above) and similarity to published marsupial cathelicidins with known antimicrobial activity ([33], [41]–[43]). These peptides were tested against nine bacteria (Staphylococcus aureus ATCC 29213 and clinical isolate, Escherichia coli ATCC 25922 and clinical isolate, Pseudomonas aeruginosa ATCC 27853 and clinical isolate, Streptococcus agalactiae ATCC 12386 and clinical isolate, Streptococcus pneumoniae ATCC 49619) and three fungi (Candida krusei ATCC 6258, Candida parapsilosis ATCC 22019, and Candida albicans clinical isolate). Details regarding these strains are available in Supplementary Table 4 . The antimicrobial activity of cathelicidins was determined as the minimum inhibitory concentration (MIC), which was the lowest concentration of cathelicidin that prevented visible bacterial or fungal growth, relative to the negative control. […] Minimum bactericidal concentration (MBC) and/or minimum fungicidal concentration (MFC) was conducted to determine microbicidal versus static action. Activity against S. aureus ATCC, E. coli ATCC, and Pseudomonas aeruginosa ATCC 27853 was examined in the presence of divalent cations to determine the impact of inhibitors.
(§2) In phase II, the remaining 38 peptides (37 extant and one ancestral) were tested against six bacteria (S. aureus ATCC and clinical isolate, E. coli ATCC and clinical isolate, and P. aeruginosa ATCC and clinical isolate). […] No further testing on phase II peptides was performed. Detailed methods for all assays are provided in subsequent sections.
(§3) Antimicrobial activity was determined using a broth microdilution susceptibility assay in 96 well polypropylene plates according to Clinical Laboratory Standards Institute guidelines M07-A and M26A as described previously ([33], [42], [43]). The bacterial and fungal isolates from humans and animals used in this study are outlined in Supplementary Table 4 . Only yeasts were included in the panel of fungi as they have been used in the susceptibility testing of eutherian ([3], [81]–[83]) and other marsupial cathelicidins previously ([33], [42], [43]). Cathelicidin mature peptides were solubilized in DMSO and serially diluted in duplicate from 128-0.25μg/mL in a final volume of 100µL. For bacteria, cathelicidins were diluted in Mueller Hinton Broth (MHB) with or without 10% lysed horse blood, and with (MH II B) or without (MHB) calcium and magnesium cations. For fungi, cathelicidins were diluted in Roswell Park Memorial Institute medium (RPMI)-1640 MOPS. Ampicillin or tetracycline were included as a positive control for Gram-positive and -negative bacteria respectively, while amphotericin B was used for fungi. A media-only negative control and growth control (no cathelicidin) were also included on each plate. Bacteria were sub-cultured on Muller Hinton agar (MHA) or sheep blood agar (BA), and fungi on Sabouraud dextrose agar (SAB), 20–24 hours prior to the test. Colonies were suspended in saline, the concentration adjusted to a 0.5 McFarland standard, and then diluted in media to a concentration of 1.0 x 10^6 cells/mL. Then, 100μL was added to each well of the cathelicidin dilution plate, giving a final inoculum density of 5 x 10^5 CFU/mL and cathelicidin concentration of 64-0.125μg/mL. Colony counts were performed on MHA/BA/SAB to confirm inoculum density. All plates were incubated at 35°C for 20–24 hours, depending on the strain.
(§4) Colonies were counted and compared to the colony count of the starting inoculum.

Experiment [2] deals with Staphylococcus aureus clinical isolate - animal. As to conditions: clinical isolate - animal; for MIC: read-out: MIC S. aureus. The procedure:
as §1, §2, §3, §4

The test system of experiment [3] is Escherichia coli clinical isolate - animal. The conditions noted are these: clinical isolate - animal. As for the experimental part:
as §1, §2, §3, §4

The test system of experiment [4] is Pseudomonas aeruginosa clinical isolate - animal. As for the experimental part:
as §1, §2, §3, §4

In experiment [5] the test system is Escherichia coli ATCC 25922. As to conditions: ATCC 25922. As for the experimental part:
as §1, §2, §3, §4

The test system of experiment [6] is Staphylococcus aureus ATCC 29213. As to conditions: ATCC 29213; for MIC: read-out: MIC S. aureus ATCC. As for the experimental part: as §1, §2, §3, §4
[7] abbreviates: ATCC 27853, read-out: MIC P. aeruginosa ATCC.
Where [8] appears, read: clinical isolate - animal, read-out: MIC P. aeruginosa.

With `CC[C@H](C)[C@H](NC(=O)[C@H](CCCNC(=N)N)NC(=O)[C@H](CCCNC(=N)N)NC(=O)[C@H](C)N)C(=O)N[C@@H](CCCNC(=N)N)C(=O)N[C@@H](CCCNC(=N)N)C(=O)N1CCC[C@H]1C(=O)N[C@@H](Cc1ccc(O)cc1)C(=O)N[C@@H](CC(C)C)C(=O)N1CCC[C@H]1C(=O)N[C@@H](CCCNC(=N)N)C(=O)N1CCC[C@H]1C(=O)N[C@@H](CCCNC(=N)N)C(=O)N1CCC[C@H]1C(=O)N[C@@H](CCCNC(=N)N)C(=O)N1CCC[C@H]1C(=O)N[C@@H](CC(N)=O)C(=O)N[C@@H](Cc1ccccc1)C(=O)N1CCC[C@H]1C(=O)N1CCC[C@H]1C(=O)N1CCC[C@H]1C(=O)N[C@@H](CCCNC(=N)N)C(=O)N1CCC[C@H]1C(=O)N[C@@H](CCCNC(=N)N)C(=O)N1CCC[C@H]1C(=O)NCC(=O)N[C@@H](CCCNC(=N)N)C(=O)N[C@@H](CO)C(=O)N[C@H](C(=O)O)C(C)C` [AnstCath2] (H-ARRIRRPYLPRPRPRPNFPPPRPRPGRSV-OH), the MIC in experiment [1] (setting [7]) is given as above 18.2 µM; in experiment [2], above 18.2 µM; in experiment [3] it was 9.1 µM (≈ 32 µg/mL); in experiment [4] (setting [8]), above 18.2 µM; in experiment [6] it was above 18.2 µM. In experiment [3], the “MBC E. coli” value turned out to be 18.2 µM (≈ 64 µg/mL). Besides, the MBC E. coli ATCC in experiment [5] stood at 4.5 µM (≈ 15.8 µg/mL). Moreover, the MIC E. coli ATCC in experiment [5] was 4.5 µM (≈ 15.8 µg/mL).

With `CC[C@H](C)[C@H](NC(=O)[C@H](CC(C)C)NC(=O)[C@H](CC(N)=O)NC(=O)[C@@H](NC(=O)[C@H](Cc1ccccc1)NC(=O)CNC(=O)[C@@H](N)Cc1c[nH]c2ccccc12)[C@@H](C)O)C(=O)N[C@@H](Cc1ccc(O)cc1)C(=O)N[C@@H](CCC(N)=O)C(=O)N[C@@H](CCCCN)C(=O)N[C@@H](Cc1ccc(O)cc1)C(=O)N[C@@H](CCCCN)C(=O)N[C@@H](CC(C)C)C(=O)N[C@@H](CC(C)C)C(=O)N[C@@H](CCCNC(=N)N)C(=O)N[C@@H](CC(N)=O)C(=O)N[C@H](C(=O)N[C@@H](Cc1ccccc1)C(=O)N[C@@H](CCCNC(=N)N)C(=O)N[C@@H](CCCCN)C(=O)N[C@@H](CC(C)C)C(=O)N[C@@H](CCCNC(=N)N)C(=O)N[C@@H](CC(N)=O)C(=O)N[C@H](C(=O)N[C@@H](CO)C(=O)N[C@@H](CO)C(=O)NCC(=O)NCC(=O)N[C@@H](CCCNC(=N)N)C(=O)N[C@@H](CC(=O)O)C(=O)N[C@@H](CC(N)=O)C(=O)N[C@@H](CCCCN)C(=O)N[C@@H](CCCCN)C(=O)O)[C@@H](C)O)C(C)C` [BepeCath4] (H-WGFTNLIYQKYKLLRNVFRKLRNTSSGGRDNKK-OH), the MIC in experiment [1] (setting [7]) is given as above 15.9 µM. In experiment [2], this compound gave an MBC S. aureus of 7.9 µM (≈ 31.6 µg/mL) and an MIC S. aureus of 7.9 µM (≈ 31.6 µg/mL). In experiment [3], the “MBC E. coli” value was found to be 7.9 µM (≈ 31.6 µg/mL) and the MIC was determined as 3.9 µM (≈ 15.6 µg/mL). The MIC in experiment [4] (setting [8]) is reported as above 15.9 µM. Also, in experiment [5], the MBC E. coli ATCC is 3.9 µM (≈ 15.6 µg/mL) and the MIC E. coli ATCC worked out at 3.9 µM (≈ 15.6 µg/mL). Further, in experiment [6], the “MBC S. aureus ATCC” value was found to be 15.9 µM (≈ 63.6 µg/mL) and the MIC is 7.9 µM (≈ 31.6 µg/mL).

With `CC[C@H](C)[C@H](NC(=O)CNC(=O)[C@H](Cc1ccccc1)NC(=O)CNC(=O)[C@@H](NC(=O)[C@@H](NC(=O)[C@H](CCCNC(=N)N)NC(=O)[C@H](CCCNC(=N)N)NC(=O)[C@H](CCCNC(=N)N)NC(=O)[C@@H](NC(=O)[C@H](CO)NC(=O)[C@H](CC(N)=O)NC(=O)[C@H](CCCCN)NC(=O)[C@H](CC(C)C)NC(=O)[C@H](CCCCN)NC(=O)[C@H](CCSC)NC(=O)CNC(=O)[C@@H](NC(=O)[C@H](CCCCN)NC(=O)[C@H](CCCCN)NC(=O)[C@@H](NC(=O)[C@@H](NC(=O)[C@H](CC(=O)O)NC(=O)[C@H](Cc1c[nH]c2ccccc12)NC(=O)[C@H](CC(C)C)NC(=O)CNC(=O)[C@H](CCCNC(=N)N)NC(=O)[C@@H](N)CCCCN)[C@@H](C)O)C(C)C)[C@@H](C)O)[C@@H](C)CC)C(C)C)[C@@H](C)O)C(=O)NCC(=O)N[C@H](C(=O)N[C@@H](C)C(=O)N[C@H](C(=O)N[C@@H](CC(C)C)C(=O)N[C@H](C(=O)N1CCC[C@H]1C(=O)N[C@@H](CCCNC(=N)N)C(=O)O)C(C)C)[C@@H](C)CC)[C@@H](C)O` [LahiCath5] (H-KRGLWDTVKKTGMKLKNSIRRRVTGFGIGTAILVPR-OH), the MIC in experiment [1] (setting [7]) is given as above 15.7 µM; in experiment [2], above 15.7 µM; in experiment [3], 3.9 µM (≈ 15.8 µg/mL); in experiment [4] (setting [8]), above 15.7 µM; in experiment [6], above 15.7 µM. In addition, the “MBC E. coli” value in experiment [3] worked out at 7.8 µM (≈ 31.6 µg/mL). In experiment [5], this compound yielded an MBC E. coli ATCC of 3.9 µM (≈ 15.8 µg/mL). Further, in experiment [5], the MIC E. coli ATCC was 3.9 µM (≈ 15.8 µg/mL).

As for `CC[C@H](C)[C@H](NC(=O)[C@H](CC(N)=O)NC(=O)[C@H](CCCNC(=N)N)NC(=O)[C@H](CC(C)C)NC(=O)[C@H](CCCCN)NC(=O)[C@H](CCCNC(=N)N)NC(=O)[C@H](Cc1ccccc1)NC(=O)[C@@H](NC(=O)[C@H](CC(N)=O)NC(=O)[C@H](CCC(N)=O)NC(=O)[C@H](CC(C)C)NC(=O)[C@@H](NC(=O)[C@H](CCCNC(=N)N)NC(=O)[C@H](Cc1ccc(O)cc1)NC(=O)[C@H](CCCCN)NC(=O)[C@H](CCC(N)=O)NC(=O)[C@H](Cc1ccc(O)cc1)NC(=O)[C@@H](NC(=O)[C@H](CC(C)C)NC(=O)[C@@H](N)CC(N)=O)[C@@H](C)CC)[C@@H](C)CC)C(C)C)C(=O)N[C@@H](Cc1ccccc1)C(=O)N[C@@H](CO)C(=O)N[C@@H](CCCNC(=N)N)C(=O)NCC(=O)N[C@@H](CCCNC(=N)N)C(=O)N[C@@H](CC(=O)O)C(=O)N[C@@H](CC(=O)O)C(=O)N[C@@H](CCCCN)C(=O)N[C@@H](CCC(=O)O)C(=O)O` [MaruCath9] (H-NLIYQKYRILQNVFRKLRNIFSRGRDDKE-OH), the MIC in experiment [1] (setting [7]), in experiment [3], in experiment [4] (setting [8]) and in experiment [5] (read-out: MIC E. coli ATCC) was above 17.3 µM each time. Besides, the MBC S. aureus in experiment [2] was 8.6 µM (≈ 31.7 µg/mL). For the same compound, the MIC S. aureus in experiment [2] was 8.6 µM (≈ 31.7 µg/mL). This compound also registered an MBC S. aureus ATCC in experiment [6] of 8.6 µM (≈ 31.7 µg/mL). In experiment [6], this compound registered an MIC S. aureus ATCC of 8.6 µM (≈ 31.7 µg/mL).

`CN(C)[C@@H]1C(O)=C(C(N)=O)C(=O)[C@@]2(O)C(O)=C3C(=O)c4c(O)cccc4[C@@](C)(O)[C@H]3C[C@@H]12` [Tetracycline, reference compound]: the MIC in experiment [1] (Pseudomonas aeruginosa, ATCC27853, MHB without cations, 5 x 10^5 CFU/mL, 35°C 20–24 hours, duplicate, read-out: MIC P. aeruginosa ATCC) turned out to be 32 µg/mL; in experiment [1] (Pseudomonas aeruginosa, ATCC27853, superscript value, cation-adjusted Mueller Hinton broth, read-out: MIC in the presence of cations P. aeruginosa ATCC), 32 µg/mL; in experiment [1] (Pseudomonas aeruginosa, ATCC27853, superscript value, cation-adjusted Mueller Hinton broth, µM equivalent, read-out: MIC in the presence of cations P. aeruginosa ATCC), 72 µM; in experiment [1] (Pseudomonas aeruginosa, ATCC27853, µM equivalent of Table 3, read-out: MIC P. aeruginosa ATCC) it was 72 µM; in experiment [4] (Pseudomonas aeruginosa, clinical isolate, MHB without cations, 5 x 10^5 CFU/mL, 35°C 20–24 hours, duplicate, read-out: MIC P. aeruginosa), 32 µg/mL; in experiment [4] (Pseudomonas aeruginosa, clinical isolate, superscript value, cation-adjusted Mueller Hinton broth, read-out: MIC in the presence of cations P. aeruginosa), 32 µg/mL. Besides, the MIC in experiment [4] (Pseudomonas aeruginosa, clinical isolate, superscript value, cation-adjusted Mueller Hinton broth, µM equivalent, read-out: MIC in the presence of cations P. aeruginosa) was 72 µM; in experiment [4] (Pseudomonas aeruginosa, clinical isolate, µM equivalent of Table 3, read-out: MIC P. aeruginosa) it was 72 µM.

(Values after publication PMC12006171, “Marsupial cathelicidins: characterization, antimicrobial activity and evolution in this unique mammalian lineage” (Frontiers in Immunology, 2025).)
